# Measured values reported in US20230310428A1, “EGFR INHIBITOR AND PREPARATION METHOD AND USE THEREOF” (HONGYUN BIOTECH CO., LTD., priority 2020, published 2023).
# Read-outs that look alike come from different tables or passages of the source.
# Columns and labels:
# Test in all cases: Growth inhibitory activity of compounds on BaF3 cell lines stably transfected with kinase (MTS, 48 h)
# Format in all cases: cell-based
# [1] = biological target: T1, various mutants of kinase EGFR (BaF3 cell lines stably transfected with kinase) (Homo sapiens, UniProt P00533)
# T1 construct: other: BaF3 cells stably transfected with EGFR Δ19Del; MTS, 48 h; other: BaF3 cell line stably transfected with EGFR Δ19Del
# Method in brief: (§1)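 Cells in DMEM or RPMI 1640 with 10% FBS were exposed to compound at 8 concentrations (top 10 µM, 1/3 steps, 0.1% DMSO) for 48 h at 37 °C, 5% CO2. MTS/PES was then added for 1-4 h and OD490 read; IC50 was fitted from growth inhibition versus 0.1% DMSO control.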
# [2] = biological target: T2, various mutants of kinase EGFR (BaF3 cell lines stably transfected with kinase) (Homo sapiens, UniProt P00533, C797S/L858R/T790M)
# T2 construct: expressed in transfected cells; host or cells: BaF3
# Method in brief: as §1
# [3] = biological target: T3, various mutants of kinase EGFR (BaF3 cell lines stably transfected with kinase) (Homo sapiens, UniProt P00533, L858R)
# T3 construct: expressed in transfected cells; host or cells: BaF3
# Method in brief: as §1
# [4] = biological target: T4, various mutants of kinase EGFR (BaF3 cell lines stably transfected with kinase) (Homo sapiens, UniProt P00533, L858R/T790M)
# T4 construct: expressed in transfected cells; host or cells: BaF3
# Method in brief: as §1
# [5] = biological target: T5, various mutants of kinase EGFR (BaF3 cell lines stably transfected with kinase) (Homo sapiens, UniProt P00533, T790M/C797S, form not given)
# T5 construct: other: BaF3 cells stably transfected with EGFR Δ19Del/T790M/C797S; MTS, 48; other: BaF3 cell line stably transfected with EGFR Δ19Del/T790M/C7
# Method in brief: as §1
# [6] = biological target: T6, various mutants of kinase EGFR (BaF3 cell lines stably transfected with kinase) (Homo sapiens, UniProt P00533, T790M, form not given)
# T6 construct: other: BaF3 cells stably transfected with EGFR Δ19Del/T790M; MTS, 48 h; other: BaF3 cell line stably transfected with EGFR Δ19Del/T790M; MTS, 48
# Method in brief: as §1
# [7] = BaF3 cell line stably transfected with EGFR Δ19Del, read-out: Δ19Del growth inhibitory activity IC50
# [8] = BaF3 cell line stably transfected with EGFR L858R/T790M/C797S, read-out: L858R/T790M/ C797S growth inhibitory activity IC50
# [9] = BaF3 cell line stably transfected with EGFR L858R, read-out: L858R growth inhibitory activity IC50
# [10] = BaF3 cell line stably transfected with EGFR L858R/T790M, read-out: L858R/ T790M growth inhibitory activity IC50
# [11] = BaF3 cell line stably transfected with EGFR Δ19Del/T790M/C797S, read-out: Δ19Del/T790M/ C797S growth inhibitory activity IC50
# [12] = BaF3 cell line stably transfected with EGFR Δ19Del/T790M, read-out: Δ19Del/ T790M growth inhibitory activity IC50
# [13] = BaF3 cells stably transfected with EGFR Δ19Del, read-out: IC50, growth inhibition, Δ19Del
# [14] = BaF3 cells stably transfected with EGFR L858R/T790M/C797S, read-out: IC50, growth inhibition, L858R/T790M/C797S
# [15] = BaF3 cells stably transfected with EGFR L858R, read-out: IC50, growth inhibition, L858R
# [16] = BaF3 cells stably transfected with EGFR L858R/T790M, read-out: IC50, growth inhibition, L858R/T790M
# [17] = BaF3 cells stably transfected with EGFR Δ19Del/T790M/C797S, read-out: IC50, growth inhibition, Δ19Del/T790M/C797S
# [18] = BaF3 cells stably transfected with EGFR Δ19Del/T790M, read-out: IC50, growth inhibition, Δ19Del/T790M
# T4 sequence (P00533 25-1210 T790M/L858R): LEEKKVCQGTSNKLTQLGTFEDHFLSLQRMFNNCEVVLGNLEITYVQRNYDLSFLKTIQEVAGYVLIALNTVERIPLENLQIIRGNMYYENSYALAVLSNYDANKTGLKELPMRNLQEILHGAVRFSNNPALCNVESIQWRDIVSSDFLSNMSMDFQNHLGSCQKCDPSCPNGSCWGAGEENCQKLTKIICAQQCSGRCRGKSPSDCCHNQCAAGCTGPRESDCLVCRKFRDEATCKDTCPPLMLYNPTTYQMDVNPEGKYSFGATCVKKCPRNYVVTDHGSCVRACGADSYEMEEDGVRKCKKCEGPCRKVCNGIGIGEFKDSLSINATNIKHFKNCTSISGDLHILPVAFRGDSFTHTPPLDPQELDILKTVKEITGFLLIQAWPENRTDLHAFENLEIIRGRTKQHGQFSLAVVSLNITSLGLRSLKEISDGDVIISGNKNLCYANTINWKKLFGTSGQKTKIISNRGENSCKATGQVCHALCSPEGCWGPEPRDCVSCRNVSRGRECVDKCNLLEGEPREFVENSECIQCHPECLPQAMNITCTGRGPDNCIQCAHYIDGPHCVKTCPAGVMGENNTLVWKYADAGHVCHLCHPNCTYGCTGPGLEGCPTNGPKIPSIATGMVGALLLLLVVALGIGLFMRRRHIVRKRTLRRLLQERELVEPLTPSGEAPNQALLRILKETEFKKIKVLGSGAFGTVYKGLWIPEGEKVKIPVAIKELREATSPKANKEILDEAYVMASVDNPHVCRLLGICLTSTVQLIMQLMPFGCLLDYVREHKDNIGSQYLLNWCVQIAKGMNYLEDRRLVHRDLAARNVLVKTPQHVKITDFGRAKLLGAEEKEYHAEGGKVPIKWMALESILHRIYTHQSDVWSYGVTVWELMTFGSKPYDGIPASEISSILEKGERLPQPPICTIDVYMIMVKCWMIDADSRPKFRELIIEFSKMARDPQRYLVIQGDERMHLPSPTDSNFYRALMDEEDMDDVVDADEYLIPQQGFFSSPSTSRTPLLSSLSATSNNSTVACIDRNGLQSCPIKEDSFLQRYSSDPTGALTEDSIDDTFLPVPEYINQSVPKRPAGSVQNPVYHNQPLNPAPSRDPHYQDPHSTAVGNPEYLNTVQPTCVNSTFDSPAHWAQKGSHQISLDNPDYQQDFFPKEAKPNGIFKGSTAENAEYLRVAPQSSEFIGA
# T1 sequence (P00533 with tags, fused parts or gaps DEL746-750): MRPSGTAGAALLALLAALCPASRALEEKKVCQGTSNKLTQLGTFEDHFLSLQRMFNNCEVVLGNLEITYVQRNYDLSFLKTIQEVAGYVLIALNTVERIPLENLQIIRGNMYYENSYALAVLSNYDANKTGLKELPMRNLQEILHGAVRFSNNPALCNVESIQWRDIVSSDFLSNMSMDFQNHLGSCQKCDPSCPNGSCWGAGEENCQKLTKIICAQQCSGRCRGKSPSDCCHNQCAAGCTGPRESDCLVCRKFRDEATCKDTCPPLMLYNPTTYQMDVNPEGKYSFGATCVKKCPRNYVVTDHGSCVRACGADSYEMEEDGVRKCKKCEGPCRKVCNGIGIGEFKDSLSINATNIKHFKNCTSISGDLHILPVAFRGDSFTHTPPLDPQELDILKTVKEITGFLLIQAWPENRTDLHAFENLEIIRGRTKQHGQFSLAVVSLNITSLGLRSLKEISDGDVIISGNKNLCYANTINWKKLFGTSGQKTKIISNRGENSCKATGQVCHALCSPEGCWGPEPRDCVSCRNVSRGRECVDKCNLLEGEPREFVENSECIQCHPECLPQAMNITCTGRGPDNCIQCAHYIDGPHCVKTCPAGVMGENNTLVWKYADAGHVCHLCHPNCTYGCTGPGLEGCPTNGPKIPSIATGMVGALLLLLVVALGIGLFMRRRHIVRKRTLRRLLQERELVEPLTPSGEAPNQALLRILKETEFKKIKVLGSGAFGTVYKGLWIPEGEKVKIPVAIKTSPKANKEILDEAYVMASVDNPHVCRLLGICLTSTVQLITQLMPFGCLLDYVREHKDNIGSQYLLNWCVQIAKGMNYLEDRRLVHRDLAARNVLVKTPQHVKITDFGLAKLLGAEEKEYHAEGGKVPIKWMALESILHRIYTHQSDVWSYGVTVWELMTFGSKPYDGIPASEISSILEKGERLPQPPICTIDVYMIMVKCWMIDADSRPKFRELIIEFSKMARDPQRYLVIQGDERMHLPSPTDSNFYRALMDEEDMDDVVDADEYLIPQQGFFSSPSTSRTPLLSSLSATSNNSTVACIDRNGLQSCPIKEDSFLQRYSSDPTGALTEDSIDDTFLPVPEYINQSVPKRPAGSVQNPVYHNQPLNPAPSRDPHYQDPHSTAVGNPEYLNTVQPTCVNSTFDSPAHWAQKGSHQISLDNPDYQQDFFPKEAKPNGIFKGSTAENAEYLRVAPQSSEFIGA
# T2 sequence (P00533 25-1210 T790M/C797S/L858R): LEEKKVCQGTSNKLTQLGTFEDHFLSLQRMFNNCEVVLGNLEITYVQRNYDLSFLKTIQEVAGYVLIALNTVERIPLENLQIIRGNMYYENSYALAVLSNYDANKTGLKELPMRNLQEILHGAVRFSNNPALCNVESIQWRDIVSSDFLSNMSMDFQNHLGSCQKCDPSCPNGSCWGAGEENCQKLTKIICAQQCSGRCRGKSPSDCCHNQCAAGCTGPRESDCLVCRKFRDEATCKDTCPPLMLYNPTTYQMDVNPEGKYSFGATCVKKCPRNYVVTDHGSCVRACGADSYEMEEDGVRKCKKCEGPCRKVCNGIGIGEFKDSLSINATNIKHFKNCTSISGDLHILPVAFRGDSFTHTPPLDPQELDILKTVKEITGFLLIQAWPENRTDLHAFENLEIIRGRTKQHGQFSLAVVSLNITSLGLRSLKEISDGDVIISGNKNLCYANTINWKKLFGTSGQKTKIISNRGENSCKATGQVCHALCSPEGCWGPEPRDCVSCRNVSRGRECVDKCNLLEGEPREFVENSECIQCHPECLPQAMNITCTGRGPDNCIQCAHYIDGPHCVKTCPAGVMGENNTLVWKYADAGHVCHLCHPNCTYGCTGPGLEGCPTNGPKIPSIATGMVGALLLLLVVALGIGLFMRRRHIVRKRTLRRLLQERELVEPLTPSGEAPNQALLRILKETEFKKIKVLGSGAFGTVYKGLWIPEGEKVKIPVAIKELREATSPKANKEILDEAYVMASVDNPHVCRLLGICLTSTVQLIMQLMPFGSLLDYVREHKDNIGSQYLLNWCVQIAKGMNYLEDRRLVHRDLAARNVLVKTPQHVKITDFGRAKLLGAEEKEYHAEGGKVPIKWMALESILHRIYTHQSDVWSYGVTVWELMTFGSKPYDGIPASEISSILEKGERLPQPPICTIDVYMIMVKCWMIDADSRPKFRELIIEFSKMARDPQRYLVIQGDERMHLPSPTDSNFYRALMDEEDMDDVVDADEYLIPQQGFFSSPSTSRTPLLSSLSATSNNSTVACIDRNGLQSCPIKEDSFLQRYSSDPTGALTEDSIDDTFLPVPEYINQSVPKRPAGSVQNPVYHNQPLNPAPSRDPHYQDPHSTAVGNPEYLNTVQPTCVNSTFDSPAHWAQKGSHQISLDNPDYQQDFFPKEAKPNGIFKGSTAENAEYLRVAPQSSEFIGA
# T3 sequence (P00533 25-1210 L858R): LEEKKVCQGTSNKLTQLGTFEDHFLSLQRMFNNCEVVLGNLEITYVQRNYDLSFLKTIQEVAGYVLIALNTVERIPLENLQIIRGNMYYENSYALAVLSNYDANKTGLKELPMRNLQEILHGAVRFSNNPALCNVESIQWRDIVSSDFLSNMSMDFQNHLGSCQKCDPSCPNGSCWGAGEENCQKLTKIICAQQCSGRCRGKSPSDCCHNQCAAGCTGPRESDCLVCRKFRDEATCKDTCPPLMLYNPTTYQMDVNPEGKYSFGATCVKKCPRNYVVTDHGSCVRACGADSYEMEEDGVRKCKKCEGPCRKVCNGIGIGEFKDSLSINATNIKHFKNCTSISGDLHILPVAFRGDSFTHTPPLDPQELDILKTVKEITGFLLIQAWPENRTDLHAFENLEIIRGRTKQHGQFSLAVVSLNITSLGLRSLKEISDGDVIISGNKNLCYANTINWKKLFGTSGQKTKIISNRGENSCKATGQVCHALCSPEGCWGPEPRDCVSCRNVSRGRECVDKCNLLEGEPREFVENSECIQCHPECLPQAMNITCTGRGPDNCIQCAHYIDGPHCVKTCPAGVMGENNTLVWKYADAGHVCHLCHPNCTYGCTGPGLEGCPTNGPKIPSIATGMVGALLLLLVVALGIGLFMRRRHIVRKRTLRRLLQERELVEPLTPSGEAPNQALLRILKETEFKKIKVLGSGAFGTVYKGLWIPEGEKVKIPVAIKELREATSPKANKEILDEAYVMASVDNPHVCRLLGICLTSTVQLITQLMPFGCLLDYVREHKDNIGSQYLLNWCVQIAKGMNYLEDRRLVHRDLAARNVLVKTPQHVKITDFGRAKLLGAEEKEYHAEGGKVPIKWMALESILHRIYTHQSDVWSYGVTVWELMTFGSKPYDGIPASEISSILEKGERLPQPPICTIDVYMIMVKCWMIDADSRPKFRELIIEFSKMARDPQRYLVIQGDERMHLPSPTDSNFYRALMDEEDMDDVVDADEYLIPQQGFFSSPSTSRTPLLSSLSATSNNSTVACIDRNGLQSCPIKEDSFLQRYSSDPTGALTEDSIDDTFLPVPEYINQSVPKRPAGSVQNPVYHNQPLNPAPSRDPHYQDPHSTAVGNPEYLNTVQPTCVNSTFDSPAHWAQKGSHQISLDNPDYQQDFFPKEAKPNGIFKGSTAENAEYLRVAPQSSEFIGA
Structure (SMILES),"IC50 [1, 7]","IC50 [2, 8]","IC50 [3, 9]","IC50 [4, 10]","IC50 [5, 11]","IC50 [6, 12]","IC50 [1, 13]","IC50 [2, 14]","IC50 [3, 15]","IC50 [4, 16]","IC50 [5, 17]","IC50 [6, 18]"
COc1ccc(N2CCC(C#N)CC2)cc1Nc1ncc(Br)c(Nc2ccc3nccnc3c2N(C)S(C)(=O)=O)n1 [Compound I-351],50 to 500 nM,50 to 500 nM,50 to 500 nM,≤ 50 nM,50 to 500 nM,50 to 500 nM,,,,,,
COc1cc(N2CCC(N3CCCC3)CC2)ccc1Nc1ncc(Br)c(Nc2ccc3nccnc3c2N(C)S(C)(=O)=O)n1 [Compound I-41],,,,,,,≤ 50 nM,≤ 50 nM,≤ 50 nM,≤ 50 nM,≤ 50 nM,≤ 50 nM
C=Cc1cc(Nc2ncc([N+](=O)[O-])c(Nc3ccc4nccnc4c3N(C)S(C)(=O)=O)n2)c(OC(F)(F)F)cc1N1CCC(N2CCN(C)CC2)CC1 [Compound I-290],,,,,,,500 to 2500 nM,50 to 500 nM,500 to 2500 nM,50 to 500 nM,50 to 500 nM,50 to 500 nM
CCc1cc(Nc2ncc(C#N)c(Nc3ccc4nccnc4c3N(C)S(C)(=O)=O)n2)c(OC)cc1N1CCC(N2CCN(C)CC2)CC1 [Compound I-29],,,,,,,50 to 500 nM,≤ 50 nM,50 to 500 nM,50 to 500 nM,50 to 500 nM,50 to 500 nM
CC(C)n1ccc(Nc2ncc(Br)c(Nc3ccc4nccnc4c3N(C)S(C)(=O)=O)n2)n1 [Compound I-384],500 to 2500 nM,50 to 500 nM,500 to 2500 nM,50 to 500 nM,50 to 500 nM,50 to 500 nM,,,,,,
CCc1cc(Nc2ncc(C(C)C)c(Nc3ccc4nccnc4c3N(C)S(C)(=O)=O)n2)c(OC)cc1N1CCN(C)CC1 [Compound I-329],50 to 500 nM,50 to 500 nM,50 to 500 nM,≤ 50 nM,50 to 500 nM,≤ 50 nM,,,,,,
CCc1cc(Nc2ncc(Br)c(Nc3ccc4nccnc4c3NS(C)(=O)=O)n2)c(OC(F)(F)F)cc1N1CCC(N2CCN(C)CC2)CC1 [Compound I-405],50 to 500 nM,50 to 500 nM,50 to 500 nM,50 to 500 nM,50 to 500 nM,≤ 50 nM,,,,,,
CCc1cc(Nc2ncc(C3CC3)c(Nc3ccc4nccnc4c3N(C)S(C)(=O)=O)n2)c(OC)cc1N1CCC(N(C)C)C1 (stereo not drawn) [Compound I-275],,,,,,,≤ 50 nM,≤ 50 nM,≤ 50 nM,50 to 500 nM,≤ 50 nM,≤ 50 nM
CCc1cc(Nc2ncc(Cl)c(Nc3ccc4nccnc4c3N(C)S(C)(=O)=O)n2)c(OC)cc1N1CCC(N(C)C)CC1 [Compound I-170],,,,,,,≤ 50 nM,≤ 50 nM,≤ 50 nM,≤ 50 nM,≤ 50 nM,≤ 50 nM
COc1cc(N2CCC(N3CCN(C)CC3)CC2)c(C)cc1Nc1ncc(Cl)c(Nc2ccc3nccnc3c2N(C)S(=O)(=O)C(F)(F)F)n1 [Compound I-129],,,,,,,500 to 2500 nM,50 to 500 nM,500 to 2500 nM,500 to 2500 nM,50 to 500 nM,50 to 500 nM
COc1ccc(N2CCC(O)CC2)cc1Nc1nc(Nc2ccc3nccnc3c2N(C)S(C)(=O)=O)c2cc[nH]c2n1 [II-2-23],50 to 500 nM,≤ 50 nM,50 to 500 nM,50 to 500 nM,≤ 50 nM,50 to 500 nM,,,,,,
CCc1cc(Nc2nc(Nc3ccc4nccnc4c3N(C)S(C)(=O)=O)c3[nH]ccc3n2)c(OC)nc1N1CCC(N2CCN(C)CC2)CC1 [II-1-21],50 to 500 nM,50 to 500 nM,50 to 500 nM,500 to 2500 nM,50 to 500 nM,50 to 500 nM,,,,,,
CCN(c1c(Nc2nc(Nc3cc(C)c(N4CCC(N(C)C)C4)cc3OC)ncc2Cl)ccc2nccnc12)S(C)(=O)=O (stereo not drawn) [Compound I-233],,,,,,,≤ 50 nM,≤ 50 nM,≤ 50 nM,≤ 50 nM,≤ 50 nM,≤ 50 nM
